Experimental findings from patent US20240246913A1, “2-CARBOXYL-INDOLE INHIBITORS OF METALLO-BETA-LACTAMASES” (Oxford University Innovation Limited, priority 2021, published 2024) are described below.

Data set [1] is described as follows: Plasma protein binding, equilibrium dialysis, human plasma. The format is in vitro ADME. Particulars: pH 7.4, equilibrium dialysis (RED) 4 hours at 37° C., read-out: Plasma protein binding, fu, Human. The method, then: (§1) The fraction of unbound compound (fu) in plasma from human or other animal species was determined by equilibrium dialysis at 37° C. for 4 hours using the Rapid Equilibrium Dialysis (RED) device (ThermoFisher Scientific). The test compound at a concentration of 10 μM was added to plasma and dialyzed against isotonic phosphate buffer (67 mM, pH 7.4) over 4 hours at 37° C. After dialysis, compound concentrations in buffer and plasma were quantified by LC-MS/MS. In parallel the stability of the compound in plasma was determined by incubating drug-spiked plasma (10 μM) at 37° C. for 4 hours, meanwhile the control plasma sample was kept in the freezer. The concentration of the compound in both samples was quantified by LC-MS/MS (Waters Corp, Milford, MA, USA).

In another data set the target is VIM-1 (Pseudomonas aeruginosa, UniProt A0A0F7KYQ8). Nature of the data set: MBL inhibition, FC-5 fluorescence assay, VIM-1. The data set is classed as biochemical. Conditions: FC-5 cephalosporin substrate, ranges of obtained pIC50, read-out: pIC50 VIM-1 (converted). A digest of the protocol: (§2)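 Turnover of the fluorogenic cephalosporin FC-5 by each MBL, followed as initial rate of fluorescence increase (ex 380/em 460 nm). Dose-response curves fitted with a variable-slope normalized-response model; 4 intra-plate replicates per concentration.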

The target in the next data set is IMP-1 (Serratia marcescens, UniProt P52699). Briefly: MBL inhibition, FC-5 fluorescence assay, IMP-1. The data set is classed as biochemical. Particulars: FC-5 cephalosporin substrate, fluorescence; ranges of obtained pIC50; read-out: pIC50 IMP-1 (converted). A digest of the protocol: as §2
A short description of data set [2]: Plasma protein binding, equilibrium dialysis, mouse plasma. The format is in vitro ADME. Particulars: pH 7.4, equilibrium dialysis (RED) 4 hours at 37° C., read-out: Plasma protein binding, fu, Mouse. The method, then: as §1
The target in the next data set is NDM-1 (Klebsiella pneumoniae, UniProt C7C422). Briefly: MBL inhibition, FC-5 fluorescence assay, NDM-1. The format is biochemical. Conditions: FC-5 cephalosporin substrate, fluorescence; ranges of obtained pIC50; read-out: pIC50 NDM-1 (converted). The method, boiled down: as §2
In the next data set the target is VIM-2 (Escherichia coli, UniProt Q5U7L7). Nature of the data set: MBL inhibition, FC-5 fluorescence assay, VIM-2. The format is biochemical. Conditions: FC-5 cephalosporin substrate, ranges of obtained pIC50, read-out: pIC50 VIM-2 (converted). The method, boiled down: as §2
Data set [3] relates to Acinetobacter baumannii NDM-1. Nature of the data set: Antibiotic susceptibility testing (MIC), AB NDM-1. The data set is classed as cell-based. Conditions: agar or broth dilution (CLSI/EUCAST). The method, then: (§3) Antibiotic susceptibility testing was performed using the agar or broth dilution method, in line with the Clinical and Laboratory Standards Institute (CLSI) and European Committee on Antimicrobial Susceptibility Testing (EUCAST) requirements.

For a further data set, the system named is Escherichia coli NDM-1. Nature of the data set: Antibiotic susceptibility testing (MIC), EC NDM-1. The data set is classed as cell-based. Conditions: agar or broth dilution (CLSI/EUCAST). The protocol:
as §3

For another data set, the system named is Escherichia coli NDM-7. Briefly: Antibiotic susceptibility testing (MIC), EC NDM-7. The format is cell-based. Particulars: agar or broth dilution (CLSI/EUCAST). The protocol: as §3

NDM-1, sequence (C7C422 29-270, looked up, species assumed): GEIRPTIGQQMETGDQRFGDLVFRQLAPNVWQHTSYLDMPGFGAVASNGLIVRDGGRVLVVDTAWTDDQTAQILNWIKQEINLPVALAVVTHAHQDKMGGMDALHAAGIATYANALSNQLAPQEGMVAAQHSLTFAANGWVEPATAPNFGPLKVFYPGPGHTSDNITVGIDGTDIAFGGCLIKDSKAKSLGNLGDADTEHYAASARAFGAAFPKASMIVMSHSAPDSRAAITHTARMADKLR
IMP-1, sequence (P52699 19-246, looked up, species assumed): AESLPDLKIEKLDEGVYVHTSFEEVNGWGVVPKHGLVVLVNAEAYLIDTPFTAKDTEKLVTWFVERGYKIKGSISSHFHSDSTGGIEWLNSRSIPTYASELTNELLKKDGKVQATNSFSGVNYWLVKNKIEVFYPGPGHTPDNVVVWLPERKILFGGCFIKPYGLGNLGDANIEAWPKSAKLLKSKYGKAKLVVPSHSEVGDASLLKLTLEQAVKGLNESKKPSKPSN

`CC(NS(C)(=O)=O)c1cccc2c(-c3cc(Cl)cc(Cl)c3)c(C(=O)O)[nH]c12` (stereo not drawn) [IC-2, 3-(3,5-Dichlorophenyl)-7-(1-(methylsulfonamido)ethyl)-1H-indole-2-carboxylic acid]: the fraction unbound at 4 h, 10 μM in data set [1] and in data set [2] was < 0.005 each time. The IC50 at VIM-1, at IMP-1, at NDM-1 and at VIM-2 was > 10 nM throughout.

Consider `CC(c1cccc2c(-c3ccc(CS(C)(=O)=O)c(F)c3)c(C(=O)O)[nH]c12)N1C(=O)CN(CCCN)C1=O` (stereo not drawn) [IC-13, 7-[1-[3-(3-Aminopropyl)-2,5-dioxo-imidazolidin-1-yl]ethyl]-3-[3-fluoro-4-(methylsulfonylmethyl)phenyl]-1H-indole-2-carboxylic acid], for which the fraction unbound at 4 h, 10 μM in data set [1] was 0.05 to 0.25; in data set [2], 0.005 to 0.05. The IC50 at VIM-1 was 1 to 10 nM; on IMP-1, > 10 nM; at NDM-1 it was < 0.1 nM; at VIM-2, > 10 nM.

Turning to `C[C@@H](c1cccc2c(-c3cnc(O)c(O)c3)c(C(=O)O)[nH]c12)N1C[C@]2(C[C@@H](CN)C2)OC1=O` [IC-29, 7-((S)-1-((2S,4r)-2-(aminomethyl)-6-oxo-5-oxa-7-azaspiro[3.4]octan-7-yl)ethyl)-3-(5,6-dihydroxypyridin-3-yl)-1H-indole-2-carboxylic acid], the “MIC values AB NDM-1” value in data set [3] was “C (C = MIC values > 8)”. Further, the “MIC values EC NDM-1” value with Escherichia coli NDM-1 was “B (B MIC values 2 ÷ 8)”. Further, the fraction unbound at 4 h, 10 μM in data set [1] was 0.005 to 0.05. Moreover, the IC50 on VIM-1 is > 10 nM; on IMP-1, > 10 nM; on NDM-1 it was > 10 nM; on VIM-2, 1 to 10 nM. The “MIC values EC NDM-7” value against Escherichia coli NDM-7 was “A (A = MIC values ≤ 1)”.

On to `C[C@@H](c1cccc2c(-c3ccn(C)c(=O)c3)c(C(=O)O)[nH]c12)N1C[C@]2(C[C@@H](CN)C2)OC1=O` [IC-32, 3-(1-methyl-2-oxo-1,2-dihydropyridin-4-yl)-7-[(1S)-1-[(2r,4r)-2-(aminomethyl)-6-oxo-5-oxa-7-azaspiro[3.4]octan-7-yl]ethyl]-1H-indole-2-carboxylic acid], for which the “MIC values AB NDM-1” value in [3] is on record as “B (B MIC values 2 ÷ 8)”. In the data set with Escherichia coli NDM-1, the “MIC values EC NDM-1” value is on record as “B (B MIC values 2 ÷ 8)”. Further, the fraction unbound at 4 h, 10 μM in [1] was > 0.25. Also, the IC50 at VIM-1 is 1 to 10 nM; at IMP-1, > 10 nM; on NDM-1, 0.1 to 1 nM; at VIM-2 it was 0.1 to 1 nM. Besides, the “MIC values EC NDM-7” value in the data set on Escherichia coli NDM-7 is recorded as “A (A = MIC values ≤ 1)”.

With `C[C@@H](c1cccc2c(-c3cn[nH]c(=O)c3)c(C(=O)O)[nH]c12)N1C[C@]2(C[C@@H](CN)C2)OC1=O` [IC-33, 3-(6-oxo-1,6-dihydropyridazin-4-yl)-7-[(1S)-1-[(2r,4r)-2-(aminomethyl)-6-oxo-5-oxa-7-azaspiro[3.4]octan-7-yl]ethyl]-1H-indole-2-carboxylic acid], the “MIC values AB NDM-1” value in [3] was “B (B MIC values 2 ÷ 8)”. Moreover, the “MIC values EC NDM-1” value in the data set on Escherichia coli NDM-1 is given as “A (A = MIC values ≤ 1)”. Also, the fraction unbound at 4 h, 10 μM in [1] fell in the range of 0.05 to 0.25. Besides, the IC50 at VIM-1 was 1 to 10 nM; at IMP-1 it was > 10 nM; on NDM-1, 1 to 10 nM; on VIM-2, 0.1 to 1 nM. Moreover, the “MIC values EC NDM-7” value against Escherichia coli NDM-7 is given as “A (A = MIC values ≤ 1)”.

For `C[C@@H](c1cccc2c(-c3ccnc(N)c3)c(C(=O)O)[nH]c12)N1C[C@]2(C[C@@H](CN)C2)OC1=O` [IC-34, 3-(2-Aminopyridin-4-yl)-7-[(1S)-1-[(2r,4r)-2-(aminomethyl)-6-oxo-5-oxa-7-azaspiro[3.4]octan-7-yl]ethyl]-1H-indole-2-carboxylic acid], the “MIC values AB NDM-1” value in data set [3] was “C (C = MIC values > 8)”. In the data set with Escherichia coli NDM-1, the “MIC values EC NDM-1” value is “B (B MIC values 2 ÷ 8)”. The fraction unbound at 4 h, 10 μM in data set [1] is > 0.25. The IC50 was 1 to 10 nM on VIM-1, > 10 nM on IMP-1, > 10 nM at NDM-1 and 1 to 10 nM on VIM-2. The “MIC values EC NDM-7” value in the data set with Escherichia coli NDM-7 was “A (A = MIC values ≤ 1)”.

As to `CNc1cc(-c2c(C(=O)O)[nH]c3c([C@H](C)N4C[C@]5(C[C@@H](CN)C5)OC4=O)cccc23)ccn1` [IC-35, 3-[2-(methylamino)pyridin-4-yl]-7-[(1S)-1-[(2r,4r)-2-(aminomethyl)-6-oxo-5-oxa-7-azaspiro[3.4]octan-7-yl]ethyl]-1H-indole-2-carboxylic acid], the “MIC values AB NDM-1” value in [3] is “C (C = MIC values > 8)”. Besides, the “MIC values EC NDM-1” value with Escherichia coli NDM-1 is “A (A = MIC values ≤ 1)”. The fraction unbound at 4 h, 10 μM in data set [1] was > 0.25. In addition, the IC50 was 1 to 10 nM on VIM-1, > 10 nM on IMP-1, > 10 nM at NDM-1 and 0.1 to 1 nM on VIM-2. The “MIC values EC NDM-7” value against Escherichia coli NDM-7 is recorded as “A (A = MIC values ≤ 1)”.

Take `CNc1ccc(-c2c(C(=O)O)[nH]c3c([C@H](C)N4C[C@]5(C[C@@H](CN)C5)OC4=O)cccc23)cn1` [IC-36, 3-[6-(methylamino)pyridin-3-yl]-7-[(1S)-1-[(2r,4r)-2-(aminomethyl)-6-oxo-5-oxa-7-azaspiro[3.4]octan-7-yl]ethyl]-1H-indole-2-carboxylic acid]: in data set [3], the “MIC values AB NDM-1” value is “B (B MIC values 2 ÷ 8)”. For the same molecule, the “MIC values EC NDM-1” value in the data set with Escherichia coli NDM-1 is “A (A = MIC values ≤ 1)”. In addition, the fraction unbound at 4 h, 10 μM in [1] was 0.05 to 0.25. Also, the IC50 at VIM-1, at IMP-1, on NDM-1 and on VIM-2 was > 10 nM each time. The “MIC values EC NDM-7” value against Escherichia coli NDM-7 is on record as “A (A = MIC values ≤ 1)”.

As for `C[C@@H](c1cccc2c(-c3ccc(N)nc3)c(C(=O)O)[nH]c12)N1C[C@]2(C[C@@H](CN)C2)OC1=O` [IC-37, 3-(6-aminopyridin-3-yl)-7-[(1S)-1-[(2r,4r)-2-(aminomethyl)-6-oxo-5-oxa-7-azaspiro[3.4]octan-7-yl]ethyl]-1H-indole-2-carboxylic acid], in data set [3], the “MIC values AB NDM-1” value is listed as “B (B MIC values 2 ÷ 8)”. Moreover, in the data set on Escherichia coli NDM-1, the “MIC values EC NDM-1” value is listed as “A (A = MIC values ≤ 1)”. In [1], the fraction unbound at 4 h, 10 μM lay within 0.05 to 0.25. In addition, the IC50 was > 10 nM on VIM-1, > 10 nM on IMP-1, 1 to 10 nM on NDM-1 and 1 to 10 nM at VIM-2. Also, the “MIC values EC NDM-7” value against Escherichia coli NDM-7 is “A (A = MIC values ≤ 1)”.

Turning to `C[C@@H](c1cccc2c(-c3ccncc3)c(C(=O)O)[nH]c12)N1C[C@]2(C[C@@H](CN)C2)OC1=O` [IC-38, 3-(pyridin-4-yl)-7-[(1S)-1-[(2r,4r)-2-(aminomethyl)-6-oxo-5-oxa-7-azaspiro[3.4]octan-7-yl]ethyl]-1H-indole-2-carboxylic acid], in [3], the “MIC values AB NDM-1” value is “B (B MIC values 2 ÷ 8)”. In addition, in the data set with Escherichia coli NDM-1, the “MIC values EC NDM-1” value is listed as “A (A = MIC values ≤ 1)”. Besides, the fraction unbound at 4 h, 10 μM in data set [1] lay within 0.005 to 0.05. For the same molecule, the IC50 on VIM-1 is 1 to 10 nM; on IMP-1, > 10 nM; on NDM-1 it was 0.1 to 1 nM; on VIM-2 it was 0.1 to 1 nM. Further, the “MIC values EC NDM-7” value in the data set with Escherichia coli NDM-7 was “A (A = MIC values ≤ 1)”.

In the case of `C[C@@H](c1cccc2c(-c3cccnc3)c(C(=O)O)[nH]c12)N1C[C@]2(C[C@@H](CN)C2)OC1=O` [IC-39, 3-(pyridin-3-yl)-7-[(1S)-1-[(2r,4r)-2-(aminomethyl)-6-oxo-5-oxa-7-azaspiro[3.4]octan-7-yl]ethyl]-1H-indole-2-carboxylic acid], the “MIC values AB NDM-1” value in data set [3] is listed as “B (B MIC values 2 ÷ 8)”. Further, the “MIC values EC NDM-1” value against Escherichia coli NDM-1 is listed as “A (A = MIC values ≤ 1)”. The fraction unbound at 4 h, 10 μM in data set [1] fell in the range of 0.005 to 0.05. The IC50 at VIM-1 was 0.1 to 1 nM; at IMP-1, > 10 nM; at NDM-1 it was 0.1 to 1 nM; on VIM-2, 1 to 10 nM. Also, the “MIC values EC NDM-7” value with Escherichia coli NDM-7 is listed as “A (A = MIC values ≤ 1)”.

For the molecule `CC(OCC1CC[N+](C)(C)CC1)c1cccc2c(-c3ccc(CS(C)(=O)=O)c(F)c3)c(C(=O)[O-])[nH]c12` (stereo not drawn) [IC-90, 7-(1-((1,1-Dimethylpiperidin-1-ium-4-yl)methoxy)ethyl)-3-(3-fluoro-4-((methylsulfonyl)methyl)phenyl)-1H-indole-2-carboxylate], the fraction unbound at 4 h, 10 μM in data set [1] is > 0.25; in [2], 0.05 to 0.25. For the same molecule, the IC50 is 1 to 10 nM at VIM-1, > 10 nM at IMP-1, 1 to 10 nM on NDM-1 and 1 to 10 nM on VIM-2.
